Data: patent US9586952B2, “Polycyclic estrogen receptor modulators and uses thereof” (SERAGON PHARMACEUTICALS, INC., priority 2013, dated 2017)

Columns and labels:
MCF-7 cells = experiment: MCF7 Viability Assay (Breast Cancer Cell Viability Assay); format: cell-based; conditions: 5 days' compound exposure, CellTiter-Glo; for IC50: Homo sapiens, MCF7, 120 h
Description: MCF-7 cells were adjusted to a concentration of 20,000 cells per mL in RPMI containing 10% FBS and 20 mM HEPES. 16 microliters of the cell suspension (320 cells) was added to each well of a 384 well plate, and the cells were incubated overnight to allow the cells to adhere. The following day an eleven point, serial semilog dilution of each compound was added to the cells in 16 μL at a final concentration ranging from 0.3-0.000003 μM. After 5 days' compound exposure, 16 μL of CellTiter-GLo (Promega, Madison Wis.) was added to the cells, and the relative luminescence units (RLUs) of each well were determined. CellTiter-Glo added to 32 μL of medium without cells was used to obtain a background value. The Percent viability of each sample was determined as follows: (RLU sample-RLU background/RLU untreated cells-RLU background)×100=% viability.

ER-α = molecular target: T1, ER-α (Homo sapiens, UniProt P03372); experiment: Breast Cancer Cell ER-α In Cell Western Assay (SP1); format: cell-based; conditions: MCF-7 cells, 4 or 24 hr post compound addition, SP1 antibody; for Emax: MCF7, read-out: ER-α In Cell Western Assay (SP1) Max Response; for DC50: read-out: ER-α In Cell Western Assay (SP1) IC50
T1 construct: endogenous in cells; host or cells: MCF-7
T1 sequence (P03372 1-595): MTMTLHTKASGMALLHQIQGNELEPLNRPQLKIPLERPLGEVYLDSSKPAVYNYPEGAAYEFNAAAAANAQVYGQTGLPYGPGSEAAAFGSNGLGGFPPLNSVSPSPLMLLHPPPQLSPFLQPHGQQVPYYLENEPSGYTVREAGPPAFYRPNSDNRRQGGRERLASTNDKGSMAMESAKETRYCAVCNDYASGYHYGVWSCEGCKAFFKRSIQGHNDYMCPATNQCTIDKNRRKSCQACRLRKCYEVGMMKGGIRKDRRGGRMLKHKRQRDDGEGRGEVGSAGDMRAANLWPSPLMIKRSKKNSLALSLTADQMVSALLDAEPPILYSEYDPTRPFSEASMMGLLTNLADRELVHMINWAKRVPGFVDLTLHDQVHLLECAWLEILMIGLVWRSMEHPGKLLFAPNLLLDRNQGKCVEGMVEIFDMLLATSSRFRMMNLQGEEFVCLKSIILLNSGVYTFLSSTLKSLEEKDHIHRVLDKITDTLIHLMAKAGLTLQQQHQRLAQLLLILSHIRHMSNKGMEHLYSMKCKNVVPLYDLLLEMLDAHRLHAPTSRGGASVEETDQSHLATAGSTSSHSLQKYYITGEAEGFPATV
Description: MCF-7 cells were adjusted to a concentration of 200,000 cells per mL in RPMI containing 10% charcoal-stripped FBS and 20 mM HEPES. 16 microliters of the cell suspension (3200 cells) was added to each well of a poly-D-lysine 384 well plate, and the cells were incubated overnight to allow the cells to adhere. The following day an eleven point, serial semilog dilution of each compound was added to the cells in 16 μL at a final concentration ranging from 0.3-0.000003 μM. At 4 or 24 hr post compound addition, the cells were fixed (10% formalin in PBS) for 20 minutes. Cells were permeablized in PBS 0.1% Triton and blocked with LICOR blocking buffer (50 μl/well, 90′). The wells were then incubated overnight at 4° C. with SP1 rabbit monoclonal Ab (Thermo Scientific) diluted 1:1000 in LICOR blocking buffer/0.1% Tween-20. Wells which were treated with blocking buffer with Tween but no antibody were used as a background control. Wells were washed with 0.1% Tween-20/PBS and then incubated in goat anti-rabbit IRDye™ 800 CW (LICOR Inc.; 1:10000) and DRAQ5 DNA dye (1:2000 for 2 mM stock) diluted in LICOR blocking buffer containing 0.1% Tween-20 and 0.01% SDS for 60 minutes. Cells were washed (50 μl/well, 5′ each) in 0.1% Tween-20/PBS. Plates were scanned on a LICOR Odyssey infrared imaging system. Integrated intensities in the 800 nm channel and 700 nm channel were measured to determine levels of ER and DNA respectively. Percent ER levels were determined as follows: (Integrated intensity 800 nm sample/integrated intensity 700 nm sample)/(Integrated intensity 800 nm untreated cells/integrated intensity 700 nm untreated cells)×100=% ER levels.

Structure (SMILES) | IC50 (MCF-7 cells) [nM] | Emax (ER-α) [%] | DC50 (ER-α) [nM] | MCF7 Viability Assay Max Response (MCF-7 cells)
Cc1cccnc1/C(=C(\c1ccc(/C=C/C(=O)O)cc1)c1ccc(-c2cn[nH]c2)cc1)C1CCC1 [Example 40, (E)-3-(4-((E)-1-(4-(1H-Pyrazol-4-yl)phenyl)-2-cyclobutyl-2-(3-methylpyridin-2-yl)vinyl)phenyl)acrylic acid] | > 100 | ≥ 40 | ≤ 100 | ++ (++ = a single % value ≧ 40%)
O=C(O)/C=C/c1ccc(/C(=C(\c2ncccc2F)C2CCC2)c2ccc(-c3cn[nH]c3)cc2)cc1 [Example 41, (E)-3-(4-((E)-1-(4-(1H-Pyrazol-4-yl)phenyl)-2-cyclobutyl-2-(3-fluoropyridin-2-yl)vinyl)phenyl)acrylic acid] | > 100 | ≥ 40 | ≤ 100 | ++ (++ = a single % value ≧ 40%)
O=C(O)/C=C/c1ccc(/C(=C(\c2ccc(C(F)(F)F)cc2Cl)C2CCC2)c2ccc(N3CCOCC3)cc2)cc1 [Example 48, (E)-3-(4-((E)-2-(2-Chloro-4-(trifluoromethyl)phenyl)-2-cyclobutyl-1-(4-morpholinophenyl)vinyl)phenyl)acrylic acid] | ≤ 100 | ≥ 40 | ≤ 100 | ++ (++ = a single % value ≧ 40%)
O=C(O)/C=C/c1ccc(/C(=C(\c2ccc(F)cc2Cl)C2CCC2)c2ccc(-c3nn[nH]n3)cc2)cc1 [Example 49, (E)-3-(4-((E)-1-(4-(2H-Tetrazol-5-yl)phenyl)-2-(2-chloro-4-fluorophenyl)-2-cyclobutylvinyl)phenyl)acrylic acid] | > 100 | < 40 | > 100 | + (+ = a single % value < 40%)
COc1ccc(/C(=C(\c2ccc(/C=C/C(=O)O)cc2)c2ccc(-c3nn[nH]n3)cc2)C2CCC2)c(Cl)c1 [Example 50, (E)-3-(4-((E)-1-(4-(2H-Tetrazol-5-yl)phenyl)-2-(2-chloro-4-methoxyphenyl)-2-cyclobutylvinyl)phenyl)acrylic acid] | > 100 | ≥ 40 | > 100 | ++ (++ = a single % value ≧ 40%)
COc1ccc(/C(=C(\c2ccc(/C=C/C(=O)O)cc2)c2ccc(-c3cn[nH]c3)cc2)C2CCC2)c(Cl)c1 [Example 51, (E)-3-(4-((E)-1-(4-(1H-Pyrazol-4-yl)phenyl)-2-(2-chloro-4-methoxyphenyl)-2-cyclobutylvinyl)phenyl)acrylic acid] | ≤ 100 | ≥ 40 | ≤ 100 | ++ (++ = a single % value ≧ 40%)
O=C(O)/C=C/c1ccc(/C(=C(\c2ccc(OC(F)(F)F)cc2Cl)C2CCC2)c2ccc(-c3cn[nH]c3)cc2)cc1 [Example 52, (E)-3-(4-((E)-1-(4-(1H-Pyrazol-4-yl)phenyl)-2-(2-chloro-4-(trifluoromethoxy)phenyl)-2-cyclobutylvinyl)phenyl)acrylic acid] | ≤ 100 | ≥ 40 | ≤ 100 | ++ (++ = a single % value ≧ 40%)
COc1ccc(/C(=C(\c2ccc(/C=C/C(=O)O)cc2)c2ccc(-c3cncs3)cc2)C2CCC2)c(Cl)c1 [Example 53, (E)-3-(4-((E)-2-(2-Chloro-4-methoxyphenyl)-2-cyclobutyl-1-(4-(thiazol-5-yl)phenyl)vinyl)phenyl)acrylic acid] | ≤ 100 | ≥ 40 | ≤ 100 | ++ (++ = a single % value ≧ 40%)

Second part, led by results:

IC50 (MCF-7 cells) [nM] | Emax (ER-α) [%] | DC50 (ER-α) [nM] | Structure (SMILES) | MCF7 Viability Assay Max Response (MCF-7 cells)
≤ 100 | ≥ 40 | ≤ 100 | O=C(O)/C=C/c1ccc(/C(=C(\c2ccc(F)cc2Cl)C2CCC2)c2ccc(-c3cn[nH]c3)cc2)cc1 [Example 37, (E)-3-(4-((E)-1-(4-(1H-Pyrazol-4-yl)phenyl)-2-(2-chloro-4-fluorophenyl)-2-cyclobutylvinyl)phenyl)acrylic acid] | ++ (++ = a single % value ≧ 40%)
≤ 100 | ≥ 40 | ≤ 100 | Cc1cscc1/C(=C(\c1ccc(/C=C/C(=O)O)cc1)c1ccc(-c2cn[nH]c2)cc1)C1CCC1 [Example 38, (E)-3-(4-((E)-1-(4-(1H-Pyrazol-4-yl)phenyl)-2-cyclobutyl-2-(4-methylthiophen-3-yl)vinyl)phenyl)acrylic acid] | ++ (++ = a single % value ≧ 40%)
≤ 100 | ≥ 40 | ≤ 100 | COc1cc(C)c(/C(=C(\c2ccc(/C=C/C(=O)O)cc2)c2ccc(N3CCOCC3)cc2)C2CCC2)cn1 [Example 39, (E)-3-(4-((E)-2-Cyclobutyl-2-(6-methoxy-4-methylpyridin-3-yl)-1-(4-morpholinophenyl)vinyl)phenyl)acrylic acid] | ++ (++ = a single % value ≧ 40%)
≤ 100 | ≥ 40 | ≤ 100 | O=C(O)/C=C/c1ccc(/C(=C(\c2ncccc2Cl)C2CCC2)c2ccc(-c3cn[nH]c3)cc2)cc1 [Example 42, (E)-3-(4-((E)-1-(4-(1H-Pyrazol-4-yl)phenyl)-2-(3-chloropyridin-2-yl)-2-cyclobutylvinyl)phenyl)acrylic acid] | ++ (++ = a single % value ≧ 40%)
≤ 100 | ≥ 40 | ≤ 100 | O=C(O)/C=C/c1ccc(/C(=C(\c2ncccc2Cl)C2CCC2)c2ccc(N3CCOCC3)cc2)cc1 [Example 43, (E)-3-(4-((E)-2-(3-Chloropyridin-2-yl)-2-cyclobutyl-1-(4-morpholinophenyl)vinyl)phenyl)acrylic acid] | ++ (++ = a single % value ≧ 40%)
≤ 100 | ≥ 40 | ≤ 100 | N#Cc1cc(Cl)ccc1/C(=C(\c1ccc(/C=C/C(=O)O)cc1)c1ccc(-c2cn[nH]c2)cc1)C1CCC1 [Example 44, (E)-3-(4-((E)-1-(4-(1H-Pyrazol-4-yl)phenyl)-2-(4-chloro-2-cyanophenyl)-2-cyclobutylvinyl)phenyl)acrylic acid] | ++ (++ = a single % value ≧ 40%)
≤ 100 | ≥ 40 | ≤ 100 | N#Cc1ccc(/C(=C(\c2ccc(/C=C/C(=O)O)cc2)c2ccc(N3CCOCC3)cc2)C2CCC2)c(Cl)c1 [Example 45, (E)-3-(4-((E)-2-(2-Chloro-4-cyanophenyl)-2-cyclobutyl-1-(4-morpholinophenyl)vinyl)phenyl)acrylic acid] | ++ (++ = a single % value ≧ 40%)
≤ 100 | ≥ 40 | ≤ 100 | N#Cc1cc(Cl)ccc1/C(=C(\c1ccc(/C=C/C(=O)O)cc1)c1ccc(N2CCOCC2)cc1)C1CCC1 [Example 46, (E)-3-(4-((E)-2-(4-Chloro-2-cyanophenyl)-2-cyclobutyl-1-(4-morpholinophenyl)vinyl)phenyl)acrylic acid] | ++ (++ = a single % value ≧ 40%)
≤ 100 | ≥ 40 | ≤ 100 | COc1ccc(/C(=C(\c2ccc(/C=C/C(=O)O)cc2)c2ccc(N3CCOCC3)cc2)C2CCC2)c(C)c1 [Example 47, (E)-3-(4-((E)-2-Cyclobutyl-2-(4-methoxy-2-methylphenyl)-1-(4-morpholinophenyl)vinyl)phenyl)acrylic acid] | ++ (++ = a single % value ≧ 40%)
